Reference: patent US11530244B2, “Cyclic polypeptides for PCSK9 inhibition” (priority 2018, dated 2022)
Where two headings read alike, the source gives them in different places. Starred links: 1 amine or outer side, 2 acyl side, 3 side chain; linkers in the order of their positions; H or OH if unused. Positions of bridges follow the written chain, without caps; N, C: chain ends. Non-standard residues stand in square brackets, D forms with d. Residues, ends and D or L forms follow the SMILES beside them. ξ: configuration not given here. Phe(4-guanidino) = N=C(N)Nc1ccc(C[C@H](N)C(=O)O)cc1; NHCH2C6H4(p)CH2CH2NH = c1cc(CN[*:1])ccc1CCN[*:2]; Ala(imidazol-2-yl) = N[C@@H](Cc1ncc[nH]1)C(=O)O; Arg(NO2) = N=C(NCCC[C@H](N)C(=O)O)N[N+](=O)[O-]; Trp(5-OH) = N[C@@H](Cc1c[nH]c2ccc(O)cc12)C(=O)O; Phe(4-COOH) = N[C@@H](Cc1ccc(C(=O)O)cc1)C(=O)O; Trp(5-F) = N[C@@H](Cc1c[nH]c2ccc(F)cc12)C(=O)O; Isophthaloyl = O=C(c1cccc(C(=O)[*:2])c1)[*:1]; Phac(3-amino) = O=C(Cc1cccc(N[*:1])c1)[*:2]; Phe(4-CH2NH2) = NCc1ccc(C[C@H](N)C(=O)O)cc1; dPro(cis-4-NH2) = N[C@H]1CN[C@@H](C(=O)O)C1; X3 = O=C(CCSCc1cc(F)cc(CSCCN[*:1])c1)[*:2]; X33 = CC(C)C(N[*:1])c1ncc(C(=O)[*:2])[nH]1; mXylylene(5-F) = Fc1cc(C[*:1])cc(C[*:2])c1; Heptanedioyl = O=C(CCCCCC(=O)[*:2])[*:1]; Pro(cis-4-F) = O=C(O)[C@@H]1C[C@H](F)CN1; X4 = O=C(CCSCc1cccc(CSCCN[*:1])c1)[*:2]; Orn(N3) = [N-]=[N+]=NCCC[C@H](N)C(=O)O; mXylylene = c1cc(C[*:1])cc(C[*:2])c1; X53 = C#CCCC[C@H](N[*:1])C(=O)[*:2]; ξAla(CF3) = NC(CC(F)(F)F)C(=O)O; Aad = N[C@@H](CCCC(=O)O)C(=O)O; Lys(Me) = CNCCCC[C@H](N)C(=O)O; aThr = C[C@H](O)[C@H](N)C(=O)O; Aoc(2) = CCCCCC[C@H](N)C(=O)O; αMeP = C[C@@]1(C(=O)O)CCCN1; Orn = NCCC[C@H](N)C(=O)O; Dab = NCC[C@H](N)C(=O)O; Ava = NCCCCC(=O)O; Mpa = O=C(O)CCS

Biological target: PCSK9 (Homo sapiens (Human), UniProt Q8NBP7)
Assay: PCSK9 Alexa FRET Standard assay (displacement of AlexaFluor647 tagged cyclic peptide Reagent A)
Type: binding
Method in brief: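 TR-FRET displacement: 0.5 nM biotinylated PCSK9 with 1.25 nM Strep-Eu and 20 nM AlexaFluor-tagged cyclic peptide (final) in 50 mM HEPES pH 7.4, 0.15 M NaCl, 5 mM CaCl2, 0.01% BSA, 0.01% P20, ≥2 h at room temperature. IC50 from sigmoidal fit, converted to Ki via peptide KD; falling Eu counts flagged false positives.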

[1] = PCSK9 Alexa FRET Standard assay, 0.5 nM PCSK9, 20 nM AF cyclic peptide Reagent A, read-out: IC50

Chain of PCSK9 (Q8NBP7 153-692): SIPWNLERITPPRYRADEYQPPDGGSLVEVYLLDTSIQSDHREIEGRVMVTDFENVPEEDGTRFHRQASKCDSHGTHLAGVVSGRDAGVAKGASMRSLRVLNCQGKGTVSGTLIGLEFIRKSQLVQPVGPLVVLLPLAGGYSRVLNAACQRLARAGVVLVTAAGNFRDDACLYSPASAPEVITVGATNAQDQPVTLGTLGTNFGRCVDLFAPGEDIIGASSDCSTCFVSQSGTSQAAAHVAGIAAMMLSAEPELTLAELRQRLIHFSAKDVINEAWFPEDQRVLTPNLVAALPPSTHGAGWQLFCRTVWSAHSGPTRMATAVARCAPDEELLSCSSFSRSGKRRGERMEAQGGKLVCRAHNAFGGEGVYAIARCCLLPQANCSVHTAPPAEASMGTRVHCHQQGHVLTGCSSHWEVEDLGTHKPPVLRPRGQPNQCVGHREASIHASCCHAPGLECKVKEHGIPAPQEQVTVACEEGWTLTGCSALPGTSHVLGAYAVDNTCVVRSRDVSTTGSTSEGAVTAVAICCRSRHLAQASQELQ

Row | Compound | IC50 [1] [µM] | IC50 (IC50) [µM]
1 | CC(C)C1NC(=O)CCSCc2cccc(c2)CSC[C@@H](C(N)=O)NC(=O)[C@]2(C)CCCN2C(=O)[C@H](Cc2ccc(O)cc2)NC(=O)[C@H](Cc2c[nH]cn2)NC(=O)[C@H](CC(=O)O)NC(=O)[C@H](Cc2c[nH]c3ccc(F)cc23)NC(=O)[C@H](Cc2c[nH]c3ccc(F)cc23)NC(=O)c2cnc1[nH]2 (stereo partly shown) [Compound 450] ([Mpa][X33][Trp(5-F)][Trp(5-F)]DHY[αMeP]C-NH2; linker 1-9 via mXylylene) | 0.1 to 1 | –
2 | COc1ccc(C[C@@H]2NC(=O)[C@@H]3CCCC(=O)N[C@@H]4C[C@H](C(=O)N3)N(C4)C(=O)[C@H](Cc3c[nH]c4ccc(F)cc34)NC(=O)[C@H](Cc3c[nH]c4ccc(F)cc34)NC(=O)[C@@H](C)NC(=O)[C@H](CCCCN)NC(=O)CCSCc3cccc(c3)CSCCNC(=O)[C@]3(C)CCCN3C2=O)cc1 [Compound 522] | 0.00011 to 0.1 | –
3 | CC[C@H](C)[C@@H]1NC(=O)[C@@H]2CCCN2C(=O)[C@H](Cc2c[nH]c3ccc(F)cc23)NC(=O)[C@H](Cc2c[nH]c3ccc(F)cc23)NC(=O)[C@@H](C)NC(=O)[C@H](CCCCN)NC(=O)CCSCc2cc(F)cc(c2)CSC[C@@H](C(N)=O)NC(=O)[C@]2(C)CCCN2C(=O)[C@H](Cc2ccc(OC)cc2)NC1=O [Compound 008] ([Mpa]K[dA][Trp(5-F)][Trp(5-F)]PIY(Me)[αMeP]C-NH2; linker 1-10 via mXylylene(5-F)) | 21 to 50 | –
4 | COc1ccc(C[C@@H]2NC(=O)[C@H]([C@@H](C)O)NC(=O)[C@@H]3C[C@H](F)CN3C(=O)[C@H](Cc3c[nH]c4ccc(F)cc34)NC(=O)[C@H](Cc3c[nH]c4ccc(F)cc34)NC(=O)[C@@H](C)NC(=O)CCCCCC(=O)NCc3ccc(cc3)C[C@@H](C(N)=O)NC(=O)[C@]3(C)CCCN3C2=O)cc1 [Compound 125] ([dA][Trp(5-F)][Trp(5-F)][Pro(cis-4-F)]TY(Me)[αMeP][Phe(4-CH2NH2)]-NH2; linker N-8 via Heptanedioyl) | 21 to 50 | –
5 | COc1ccc(C[C@@H]2NC(=O)[C@@H]([C@H](C)O)NC(=O)[C@H]3C[C@@H](N)CN3C(=O)[C@H](Cc3c[nH]c4ccc(F)cc34)NC(=O)[C@H](Cc3c[nH]c4ccc(F)cc34)NC(=O)[C@@H](C)NC(=O)[C@H](CCCCN)NC(=O)CCSCc3cc(F)cc(c3)CSCCNC(=O)[C@]3(C)CCCN3C2=O)cc1 [Compound 082] (cyclo(K[dA][Trp(5-F)][Trp(5-F)][dPro(cis-4-NH2)][dT]Y(Me)[αMeP][X3])) | 0.1 to 1 | –
6 | COc1ccc(C[C@@H]2NC(=O)[C@H](Cc3ncc[nH]3)NC(=O)[C@H](CC(=O)O)NC(=O)[C@H](Cc3c[nH]c4ccc(F)cc34)NC(=O)[C@H](Cc3c[nH]c4ccc(F)cc34)NC(=O)[C@@H](C)NC(=O)[C@H](Cc3ccc(N=C(N)N)cc3)NC(=O)CCSCc3cccc(c3)CSCCNC(=O)[C@]3(C)CCCN3C2=O)cc1 [Compound 441] (cyclo(D[Ala(imidazol-2-yl)]Y(Me)[αMeP][X4][Phe(4-guanidino)][dA][Trp(5-F)][Trp(5-F)])) | 21 to 50 | –
7 | COc1ccc(C[C@@H]2NC(=O)[C@H]([C@@H](C)O)NC(=O)[C@@H]3C[C@H](F)CN3C(=O)[C@H](Cc3c[nH]c4ccc(F)cc34)NC(=O)[C@H](Cc3c[nH]c4ccc(F)cc34)NC(=O)[C@@H](C)NC(=O)CCCCNC(=O)c3ccc(cc3)C[C@@H](C(N)=O)NC(=O)[C@]3(C)CCCN3C2=O)cc1 [Compound 076] ([Ava][dA][Trp(5-F)][Trp(5-F)][Pro(cis-4-F)]TY(Me)[αMeP][Phe(4-COOH)]-NH2; lactam N-9) | 0.1 to 1 | –
8 | C[C@@]12CCCN1C(=O)[C@H](Cc1ccc(O)cc1)NC(=O)[C@H](Cc1cnc[nH]1)NC(=O)[C@H](CC(=O)O)NC(=O)[C@H](Cc1c[nH]c3ccc(F)cc13)NC(=O)[C@H](Cc1c[nH]c3ccc(O)cc13)NC(=O)CNC(=O)[C@H](CCCCN)NC(=O)CCSCc1cccc(c1)CSC[C@@H](C(N)=O)NC2=O [Compound 414] ([Mpa]KG[Trp(5-OH)][Trp(5-F)]DHY[αMeP]C-NH2; linker 1-10 via mXylylene) | 0.1 to 1 | –
9 | CCCCCC[C@@H]1NC(=O)CCSCc2cccc(c2)CSCCNC(=O)[C@]2(C)CCCN2C(=O)[C@H](Cc2ccc(OC)cc2)NC(=O)[C@H](Cc2ncc[nH]2)NC(=O)[C@H](CC(=O)O)NC(=O)[C@H](Cc2c[nH]c3ccc(F)cc23)NC(=O)[C@H](Cc2c[nH]c3ccc(F)cc23)NC(=O)[C@@H](C)NC1=O [Compound 442] (cyclo([Aoc(2)][dA][Trp(5-F)][Trp(5-F)]D[Ala(imidazol-2-yl)]Y(Me)[αMeP][X4])) | 0.00011 to 0.1 | –
10 | COc1ccc(C[C@@H]2NC(=O)[C@H]([C@H](C)O)NC(=O)[C@@H]3C[C@H](F)CN3C(=O)[C@H](Cc3c[nH]c4ccc(F)cc34)NC(=O)[C@H](Cc3c[nH]c4ccc(F)cc34)NC(=O)[C@@H](C)NC(=O)[C@H](C)NC(=O)[C@@H](NC(C)=O)CCNC(=O)c3cccc(c3)C(=O)NCCC[C@@H](C(N)=O)NC(=O)[C@]3(C)CCCN3C2=O)cc1 [Compound 134] (Ac-[Dab]A[dA][Trp(5-F)][Trp(5-F)][Pro(cis-4-F)][aThr]Y(Me)[αMeP][Orn]-NH2; linker 1-10 via Isophthaloyl) | 21 to 50 | –
11 | CO[C@@H](C)[C@@H]1NC(=O)[C@@H]2CCCN2C(=O)[C@H](Cc2c[nH]c3ccc(F)cc23)NC(=O)[C@H](Cc2c[nH]c3ccc(F)cc23)NC(=O)[C@@H](C)NC(=O)[C@H](CCCCN)NC(=O)CCSCc2cccc(c2)CSCCNC(=O)[C@]2(C)CCCN2C(=O)[C@H](Cc2ccc(O)cc2)NC1=O [Compound 071] (cyclo(K[dA][Trp(5-F)][Trp(5-F)]P[aThr](Me)Y[αMeP][X4])) | 21 to 50 | –
12 | COc1ccc(C[C@@H]2NC(=O)[C@H](Cc3cnc[nH]3)NC(=O)[C@H](CC(=O)O)NC(=O)[C@H](Cc3c[nH]c4ccc(F)cc34)NC(=O)[C@H](Cc3c[nH]c4ccc(F)cc34)NC(=O)[C@@H](C)NC(=O)[C@H](CCCC(=O)O)NC(=O)CCSCc3cccc(c3)CSCCNC(=O)[C@]3(C)CCCN3C2=O)cc1 [Compound 427] (cyclo([Aad][dA][Trp(5-F)][Trp(5-F)]DHY(Me)[αMeP][X4])) | 21 to 50 | –
13 | CNCCCC[C@@H]1NC(=O)CCSCc2cc(F)cc(c2)CSCCNC(=O)[C@]2(C)CCCN2C(=O)[C@H](Cc2ccc(OC)cc2)NC(=O)[C@H](Cc2ncc[nH]2)NC(=O)[C@H](CC(=O)O)NC(=O)[C@H](Cc2c[nH]c3ccc(F)cc23)NC(=O)[C@H](Cc2c[nH]c3ccc(F)cc23)NC(=O)[C@@H](C)NC1=O [Compound 468] (cyclo(D[Ala(imidazol-2-yl)]Y(Me)[αMeP][X3][Lys(Me)][dA][Trp(5-F)][Trp(5-F)])) | 1 to 12.1 | –
14 | COc1ccc(C[C@@H]2NC(=O)[C@H](Cc3ncc[nH]3)NC(=O)[C@H](CC(=O)O)NC(=O)[C@H](Cc3c[nH]c4ccc(F)cc34)NC(=O)[C@H](Cc3c[nH]c4ccc(F)cc34)NC(=O)[C@@H](C)NC(=O)C(CC(F)(F)F)NC(=O)CCSCc3cccc(c3)CSCCNC(=O)[C@]3(C)CCCN3C2=O)cc1 (stereo partly shown) [Compound 443] (cyclo(D[Ala(imidazol-2-yl)]Y(Me)[αMeP][X4][ξAla(CF3)][dA][Trp(5-F)][Trp(5-F)])) | 21 to 50 | –
15 | C#CCCC[C@@H]1NC(=O)[C@H](Cc2c[nH]c3ccc(F)cc23)NC(=O)[C@H](CCCN=[N+]=[N-])NC(=O)[C@@H](C)NC(=O)[C@H](C)NC(=O)CCSCc2cccc(c2)CSCCNC(=O)[C@]2(C)CCCN2C(=O)[C@H](Cc2ccc(OC)cc2)NC(=O)[C@H]([C@@H](C)O)NC1=O [Compound 078] (cyclo(A[dA][Orn(N3)][Trp(5-F)][X53]TY(Me)[αMeP][X4])) | 0.1 to 1 | –
16 | COc1ccc(C[C@@H]2NC(=O)[C@H]([C@@H](C)O)NC(=O)[C@@H]3C[C@H](F)CN3C(=O)[C@H](Cc3c[nH]c4ccc(F)cc34)NC(=O)[C@H](Cc3c[nH]c4ccc(F)cc34)NC(=O)[C@@H](C)NC(=O)[C@H](CCCCN)NC(=O)[C@@H](NC(C)=O)CCCC(=O)NCc3ccc(cc3)CCNC(=O)[C@]3(C)CCCN3C2=O)cc1 [Compound 096] (Ac-[Aad]K[dA][Trp(5-F)][Trp(5-F)][Pro(cis-4-F)]TY(Me)[αMeP]; linker 1-C via NHCH2C6H4(p)CH2CH2NH) | 0.1 to 1 | –
17 | COc1ccc(C[C@@H]2NC(=O)[C@H](Cc3cnc[nH]3)NC(=O)[C@H](CC(=O)O)NC(=O)[C@H](Cc3c[nH]c4ccc(F)cc34)NC(=O)[C@H](Cc3c[nH]c4ccc(F)cc34)NC(=O)[C@@H](C)NC(=O)[C@H](NC(C)=O)CCCCNC(=O)c3ccc(cc3)C[C@@H](C(N)=O)NC(=O)[C@]3(C)CCCN3C2=O)cc1 [Compound 341] (Ac-[dK][dA][Trp(5-F)][Trp(5-F)]DHY(Me)[αMeP][Phe(4-COOH)]-NH2; lactam 1-9) | 21 to 50 | –
18 | COc1ccc(C[C@@H]2NC(=O)[C@H](Cc3cnc[nH]3)NC(=O)[C@H](CC(=O)O)NC(=O)[C@H](Cc3c[nH]c4ccc(F)cc34)NC(=O)[C@H](Cc3c[nH]c4ccc(F)cc34)NC(=O)[C@@H](C)NC(=O)Cc3cccc(c3)NC(=O)C[C@@H](C(=O)O)NC(=O)[C@]3(C)CCCN3C2=O)cc1 [Compound 413] ([Phac(3-amino)][dA][Trp(5-F)][Trp(5-F)]DHY(Me)[αMeP]D-OH; lactam N-9) | 21 to 50 | –
19 | COc1ccc(C[C@@H]2NC(=O)[C@H](Cc3ncc[nH]3)NC(=O)[C@H](CC(=O)O)NC(=O)[C@H](Cc3c[nH]c4ccc(F)cc34)NC(=O)[C@H](Cc3c[nH]c4ccc(F)cc34)NC(=O)[C@@H](C)NC(=O)[C@H](CCC/N=C(\N)N[N+](=O)[O-])NC(=O)CCSCc3cccc(c3)CSCCNC(=O)[C@]3(C)CCCN3C2=O)cc1 [Compound 445] (cyclo([Arg(NO2)][dA][Trp(5-F)][Trp(5-F)]D[Ala(imidazol-2-yl)]Y(Me)[αMeP][X4])) | – | 21 to 50
